Ends that are not written are not given here. Peptide text beside a SMILES is read from it. * marks the point of attachment. Cbz = O=C(OCc1ccccc1)*
What was measured:
[1] = molecular target: T1, LYMPHOCYTE Fc Receptor IgE (Homo sapiens, UniProt P06734); experiment: Rosette inhibition assay, lymphocyte IgE Fc receptor; assay type: binding; conditions: RPMI-8866 and Daudi cell lines; relative to intact monomeric myeloma IgE at equal concentration; NS = not significantly different from 0
T1 construct: the cells expressing surface Fc receptors formed rosettes; endogenous in cells; host or cells: RPMI-8866 / Daudi
T1 sequence (P06734 1-321): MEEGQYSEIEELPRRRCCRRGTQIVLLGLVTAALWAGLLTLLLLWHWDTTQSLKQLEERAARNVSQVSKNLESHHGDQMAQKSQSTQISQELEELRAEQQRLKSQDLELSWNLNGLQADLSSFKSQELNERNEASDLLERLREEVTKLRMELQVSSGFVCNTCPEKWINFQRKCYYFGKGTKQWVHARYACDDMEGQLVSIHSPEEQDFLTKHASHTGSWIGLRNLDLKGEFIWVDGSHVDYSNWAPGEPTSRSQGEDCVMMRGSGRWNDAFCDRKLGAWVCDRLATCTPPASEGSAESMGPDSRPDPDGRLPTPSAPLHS
Protocol: (§1) The Fc receptor blocking activity of the subject peptides was assessed using well established techniques and procedures. In particular, a rosette assay was employed which uses either monomeric, chemically or heat aggregated human IgG or IgE obtained from human myeloma sera. (Gonzalez-Molina, et al., J. Clin. Invest., 59, 616 (1977); Spiegelberg, et al. in Immunoassays: Clinical Laboratory Techniques for the 1980's (Alan R. Liss: New York, 1980), pp. 287-300). The IgG or IgE is then adsorbed to ox-erythrocytes which has been previously treated with trypsin and pyruvic aldehyde. Fresh human cell PMNs, monocytes and basophils from a patient with basophilic chronic myelogenous leukemia or human cell lines (RPMI-8866, and Daudi for lymphocyte Fc receptors and U937 for monocyte/macrophage Fc receptors) were then incubated in the presence or absence of inhibitors (monomeric IgG or IgE or peptides) at equal concentrations for fifteen minutes before addition of the indicator oxerythrocytes. In the absence of inhibitors, the cells expressing surface Fc receptors formed rosettes, clusters of three or more indicator erythrocytes that bound to the cells by virtue of exposed Fc regions on the erythrocyte surface. Addition of inhibitor myeloma proteins or inhibitor peptides produced a reproducable reduction of rosette formation, […], phosphate buffered isotonic saline, was used alone as control and then multiplying the calculated quotient by 100.
(§2) Table 1 presents the inhibition observed by representative peptide inhibitors calculated as a percentage of the inhibition observed with intact, monomeric myeloma proteins. Thus, 50 percent inhibition implys that the peptide was 50% as inhibitory as the intact myeloma protein to which it was compared.

[2] = molecular target: T2, LYMPHOCYTE Fc Receptor IgG (Homo sapiens, UniProt P31994); experiment: Rosette inhibition assay, lymphocyte IgG Fc receptor; assay type: binding; conditions: RPMI-8866 and Daudi cell lines; relative to intact monomeric myeloma IgG at equal concentration; NS = not significantly different from 0
T2 construct: the cells expressing surface Fc receptors formed rosettes; endogenous in cells; host or cells: RPMI-8866 / Daudi
T2 sequence (P31994 43-310): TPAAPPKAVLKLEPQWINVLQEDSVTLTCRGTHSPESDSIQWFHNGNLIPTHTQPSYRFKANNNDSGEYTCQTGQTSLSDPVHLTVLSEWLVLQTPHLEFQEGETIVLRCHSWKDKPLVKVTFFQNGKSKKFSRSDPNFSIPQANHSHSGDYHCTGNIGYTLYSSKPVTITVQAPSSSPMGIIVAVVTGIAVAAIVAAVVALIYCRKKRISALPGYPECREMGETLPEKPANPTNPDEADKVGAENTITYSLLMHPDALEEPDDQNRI
Protocol: as §1, §2

[3] = molecular target: T3, BASOPHIL Fc Receptor IgE (Homo sapiens, UniProt P12319); experiment: Rosette inhibition assay, basophil IgE Fc receptor; assay type: binding; conditions: basophils from a patient with basophilic chronic myelogenous leukemia; relative to monomeric myeloma IgE; NS = not significantly different from 0
T3 construct: the cells expressing surface Fc receptors formed rosettes; endogenous in cells; host or cells: basophils of a patient with basophilic chronic myelogenous leukemia
T3 sequence (P12319 26-257): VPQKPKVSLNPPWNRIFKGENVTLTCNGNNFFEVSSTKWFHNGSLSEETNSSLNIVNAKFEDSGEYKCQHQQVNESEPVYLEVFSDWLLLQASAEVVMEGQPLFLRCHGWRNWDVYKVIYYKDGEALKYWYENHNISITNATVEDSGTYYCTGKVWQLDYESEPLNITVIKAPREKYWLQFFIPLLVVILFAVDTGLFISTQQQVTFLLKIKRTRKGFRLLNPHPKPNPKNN
T3 sequence (Q01362 1-244 partner): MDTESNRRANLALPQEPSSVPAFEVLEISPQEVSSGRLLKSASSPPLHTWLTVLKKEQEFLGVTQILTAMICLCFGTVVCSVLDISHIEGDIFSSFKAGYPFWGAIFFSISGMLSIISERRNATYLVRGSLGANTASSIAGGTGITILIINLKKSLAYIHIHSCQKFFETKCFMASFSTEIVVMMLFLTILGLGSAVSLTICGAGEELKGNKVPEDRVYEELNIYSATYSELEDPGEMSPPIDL
T3 sequence (P30273 19-86 partner): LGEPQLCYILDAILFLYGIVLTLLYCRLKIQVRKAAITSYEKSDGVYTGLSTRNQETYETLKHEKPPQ
Protocol: as §1, §2

[4] = molecular target: T4, MONOCYTE/MACROPHAGE Fc Receptor IgE (Homo sapiens, UniProt P06734); experiment: Rosette inhibition assay, monocyte/macrophage IgE Fc receptor; assay type: binding; conditions: human monocytes or U937; relative to intact monomeric myeloma IgE at equal concentration; NS = not significantly different from 0
T4 construct: the cells expressing surface Fc receptors formed rosettes; endogenous in cells; host or cells: fresh human monocytes or U937
T4 sequence (P06734 1-321): T1 sequence (P06734 1-321)
Protocol: as §1, §2

[5] = molecular target: C1q Fc receptor (Homo sapiens, UniProt P02745+P02746+P02747); conditions: peptides adsorbed to erythrocytes; Johnson and Thames 1975, Boackle et al. 1979; cited from earlier work
Chain of C1q Fc receptor (P02745 23-245): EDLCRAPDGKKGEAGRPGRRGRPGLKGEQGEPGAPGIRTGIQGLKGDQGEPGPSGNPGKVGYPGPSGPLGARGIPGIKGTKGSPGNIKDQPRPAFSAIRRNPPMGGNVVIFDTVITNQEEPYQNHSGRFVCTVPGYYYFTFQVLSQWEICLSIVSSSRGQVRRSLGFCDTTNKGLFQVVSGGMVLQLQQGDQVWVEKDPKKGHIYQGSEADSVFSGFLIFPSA
Chain of C1q Fc receptor (P02746 28-253): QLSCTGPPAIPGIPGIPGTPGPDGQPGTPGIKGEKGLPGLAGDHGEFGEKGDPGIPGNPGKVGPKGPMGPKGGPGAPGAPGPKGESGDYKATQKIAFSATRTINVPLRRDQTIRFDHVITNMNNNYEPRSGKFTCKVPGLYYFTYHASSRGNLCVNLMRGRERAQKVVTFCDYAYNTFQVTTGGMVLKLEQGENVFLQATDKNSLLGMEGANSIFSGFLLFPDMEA
Chain of C1q Fc receptor (P02747 29-245): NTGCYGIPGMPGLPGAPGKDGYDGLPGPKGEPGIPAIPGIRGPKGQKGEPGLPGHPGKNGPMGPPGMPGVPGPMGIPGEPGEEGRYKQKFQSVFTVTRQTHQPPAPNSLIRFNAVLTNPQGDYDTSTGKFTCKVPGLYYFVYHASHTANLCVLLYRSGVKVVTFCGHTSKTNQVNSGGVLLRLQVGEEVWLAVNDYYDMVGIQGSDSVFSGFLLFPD
Chain of C1q Fc receptor (P00736 18-705 partner): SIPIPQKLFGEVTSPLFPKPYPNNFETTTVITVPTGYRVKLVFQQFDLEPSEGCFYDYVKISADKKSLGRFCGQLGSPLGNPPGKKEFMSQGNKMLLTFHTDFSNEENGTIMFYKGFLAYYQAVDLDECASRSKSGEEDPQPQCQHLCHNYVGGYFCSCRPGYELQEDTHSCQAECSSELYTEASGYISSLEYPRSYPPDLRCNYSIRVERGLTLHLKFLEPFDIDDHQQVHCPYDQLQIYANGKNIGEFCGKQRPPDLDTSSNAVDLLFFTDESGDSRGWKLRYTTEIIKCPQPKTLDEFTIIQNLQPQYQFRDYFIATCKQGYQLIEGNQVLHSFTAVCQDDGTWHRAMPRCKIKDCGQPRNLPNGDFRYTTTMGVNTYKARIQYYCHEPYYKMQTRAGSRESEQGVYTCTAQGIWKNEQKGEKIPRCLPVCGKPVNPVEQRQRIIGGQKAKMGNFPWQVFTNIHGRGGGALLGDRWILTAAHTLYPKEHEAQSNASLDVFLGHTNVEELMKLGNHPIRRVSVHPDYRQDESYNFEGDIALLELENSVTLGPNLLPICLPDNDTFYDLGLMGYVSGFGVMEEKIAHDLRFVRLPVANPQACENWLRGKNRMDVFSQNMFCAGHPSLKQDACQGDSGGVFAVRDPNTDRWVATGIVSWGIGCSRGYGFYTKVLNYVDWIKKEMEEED
Chain of C1q Fc receptor (P09871 16-688 partner): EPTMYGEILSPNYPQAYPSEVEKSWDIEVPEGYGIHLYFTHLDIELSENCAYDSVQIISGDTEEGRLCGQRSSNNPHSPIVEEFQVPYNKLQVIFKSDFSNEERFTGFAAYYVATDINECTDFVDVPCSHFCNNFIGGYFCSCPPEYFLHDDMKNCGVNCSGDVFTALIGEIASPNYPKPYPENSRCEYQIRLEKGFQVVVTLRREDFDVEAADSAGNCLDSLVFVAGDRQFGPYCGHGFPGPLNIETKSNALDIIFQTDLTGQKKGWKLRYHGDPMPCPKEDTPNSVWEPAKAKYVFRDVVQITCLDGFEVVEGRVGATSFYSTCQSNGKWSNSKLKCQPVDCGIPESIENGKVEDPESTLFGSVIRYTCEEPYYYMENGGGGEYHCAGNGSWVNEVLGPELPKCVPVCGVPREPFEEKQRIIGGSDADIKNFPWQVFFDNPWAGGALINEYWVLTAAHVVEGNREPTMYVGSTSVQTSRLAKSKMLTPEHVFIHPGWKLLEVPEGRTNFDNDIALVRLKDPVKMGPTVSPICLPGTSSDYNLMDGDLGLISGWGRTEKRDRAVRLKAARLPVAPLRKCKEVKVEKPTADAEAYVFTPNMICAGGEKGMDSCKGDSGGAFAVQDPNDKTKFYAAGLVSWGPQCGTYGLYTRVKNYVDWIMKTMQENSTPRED

| Compound | Rosette inhibition expressed as percent inhibition by monomeric IgE; lymphocyte Fc receptor, IgE [1] | Rosette inhibition expressed as percent inhibition by monomeric IgG; lymphocyte Fc receptor, IgG [2] | Rosette inhibition expressed as percent inhibition by monomeric IgE; basophil Fc receptor, IgE [3] | Rosette inhibition expressed as percent inhibition by monomeric IgE; monocyte/macrophage Fc receptor, IgE [4] | complement activating ability (C1q-mediated cell lysis) [5] |
| --- | --- | --- | --- | --- | --- |
| TVLHQNWLDGK | 95% | 34% | 100% | 95% |  |
| RSTTKTSGPR | 87% | 100% | 110% | 87% |  |
| TISKAKGQPR | 106% | 84% | 133% | 87% |  |
| KFEWYVEGVE |  |  |  |  | less active |
| VHEAKAKPGR |  |  |  |  | less active |
| YDYYVDG |  |  |  |  | less active |
| DSNPR [Asp--Ser--Asn--Pro--Arg] |  |  | 37% | 48% |  |
| EWYERG |  |  |  |  | less active |
| ZAsnTrpTyrVal (Cbz-NWYV) |  |  |  |  | less active |
| C[C@H](NC(=O)[C@H](CCCNC(=N)N)NC(=O)[C@@H](N)[C@@H](C)O)C(=O)N[C@@H](CCC(=O)O)C(=O)O [Thr--Arg--Ala--Glu, Thr-Arg-Ala-Glu] (H-TRAE-OH) |  | 49% | 41% | 20% |  |
| Tyr-Glu-Ala-Gly (YEAG; printed: Tyr-Glu-Ala-Gly) |  |  |  |  | inactive |
| TTQPR [Thr--Thr--Gln--Pro--Arg] |  | 36% | 80% | 58% |  |
| NCCCC[C@H](NC(=O)[C@H](CCC(N)=O)NC(=O)[C@@H](N)CCC(=O)O)C(=O)N[C@@H](CC(=O)O)C(=O)O [Glu--Gln--Lys--Asp] (H-EQKD-OH) |  |  | 106% |  |  |
| YVEWGERG |  |  |  |  | less active |
| TRAEAEQKD [Thr--Arg--Ala--Glu--Ala--Glu--Gln--Lys--Asp] |  |  | 108% | 21% |  |
| KFDAYVDG |  |  |  |  | less active |
| ZValGluTrpGly (Cbz-VEWG) |  |  |  |  | less active |
| N=C(N)NCCC[C@H](NC(=O)[C@H](CO)NC(=O)[C@H](CCCCN)NC(=O)[C@@H](N)CC(=O)O)C(=O)O [Asp--Lys--Ser--Arg, Asp-Lys-Ser-Arg] (H-DKSR-OH) | 23% | 86% | 89% | 38% |  |
| NCCCC[C@H](NC(=O)[C@H](CO)NC(=O)[C@H](CCCCN)NC(=O)[C@@H](N)CC(=O)O)C(=O)O [Asp--Lys--Ser--Lys] (H-DKSK-OH) |  | 16% | 94% |  |  |
| PDARHS [Pro--Asp--Ala--Arg--His--Ser, Pro-Asp-Ala-Arg-His-Ser] | 98% | 95% | 101% | 87% |  |
| KYDWYVDG |  |  |  |  | less active |
| TyrGluArgGly (YERG; printed: TyrGluArgGly) |  |  |  |  | less active |
| DKSRAQQGN [Asp--Lys--Ser--Arg--Ala--Gln--Gln--Gly--Asn] |  |  | 74% |  |  |
| CC(=O)N[C@@H](CCC(N)=O)C(=O)N1CCC[C@H]1C(=O)N[C@@H](CCC(=O)O)C(=O)N[C@@H](CC(N)=O)C(=O)O [Ac--Gln--Pro--Glu--Asn, Ac-Gln-Pro-Glu-Asn] (Ac-QPEN-OH) |  | 94% | 89% | 55% |  |
| Trp-Leu |  |  |  |  | inactive |
| KADWYVDG |  |  |  |  | about as effective in activating C1q-mediated cell lysis as immune complexes formed by heat aggregated IgG |
| KFDWAVDG |  |  |  |  | less active |
| YSKLTVDKSR [reference compound] |  | 29% | 89% | 33% |  |
| TrpTyrValAspGly (WYVDG; printed: TrpTyrValAspGly) |  |  |  |  | less active |
| SVMHEALHNHYTQK [Ser--Val--Met--His--Glu--Ala--Leu--His--Asn--His--Tyr--Thr--Gln--Lys] |  |  | 74% | 28% |  |

Reference: patent US4579840A, “Method of blocking immune complex binding to immunoglobulin Fc receptors” (Immunetech Pharmaceuticals, priority 1983, dated 1986)
